Reference: patent US8524917B2, “6-substituted indole-3-carboxylic acid amide compounds having sphingosine-1-phosphate (S1P) receptor antagonist biological activity” (Allergan, Inc., priority 2007, dated 2013)
Like-named read-outs stand apart in the source and are kept apart here.

Target: human S1P3 receptor (Homo sapiens (Human), UniProt Q99500)
Test: Activation or block of activation of human S1P3 receptor, Ca+2 FLIPR assay
Assay type: cell-based
Summary of the method: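 T24 cells stably expressing human S1P3, grown in charcoal-treated FBS, dye-loaded and read on FLIPR for calcium after ligand addition in HBSS/20 mM HEPES (1 s readings for 75 s, then every 10 s for 2.5 min). Agonist or antagonist mode; S1P positive control in 4 mg/ml fatty-acid-free BSA. IC50 by Levenberg–Marquardt regression.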

[1] = T24 cells stably expressing the human S1P3 receptor, FLIPR Ca+2 response, 0.61 nM to 10,000 nM, read-out: S1P3 IC50
[2] = T24 cells stably expressing the human S1P3 receptor, value in brackets

Sequence of human S1P3 receptor (Q99500 whole entry): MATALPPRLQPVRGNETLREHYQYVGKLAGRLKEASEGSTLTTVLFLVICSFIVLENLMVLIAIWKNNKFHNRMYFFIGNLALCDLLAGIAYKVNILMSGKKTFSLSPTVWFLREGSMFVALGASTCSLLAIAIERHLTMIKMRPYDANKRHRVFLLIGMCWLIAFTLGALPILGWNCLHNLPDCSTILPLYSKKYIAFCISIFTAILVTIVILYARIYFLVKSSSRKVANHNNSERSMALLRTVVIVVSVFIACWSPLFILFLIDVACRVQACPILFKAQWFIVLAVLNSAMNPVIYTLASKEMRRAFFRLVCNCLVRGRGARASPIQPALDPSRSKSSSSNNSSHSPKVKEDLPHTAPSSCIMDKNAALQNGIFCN

Row | Compound | IC50 [1] [nM] | S1P3 (% inh) [2] | other results
1 | CC(C)c1c(C(=O)NCc2ccc(F)c(F)c2)c2ccc(OC3CCCC3)cc2n1Cc1cccnc1 [Compound 153, 6-(Cyclopentyloxy)-N-(3,4-difluorobenzyl)-2-isopropyl-1-(pyridin-3-ylmethyl)-1H-indole-3-carboxamide] | – | – | S1P3 (% inh): 5 nM (99) %; IC50 (read-out: S1P3 IC50): 5 nM
2 | CC[C@H]1COC(c2ccc3c(C(=O)NCc4cncc(F)c4)c(C(C)C)n(Cc4ccccc4)c3c2)=N1 [Compound 73, (S)-1-Benzyl-6-(4-ethyl-4,5-dihydrooxazol-2-yl)-N-((5-fluoropyridin-3-yl)methyl)-2-isopropyl-1H-indole-3-carboxamide] | 35 | 100% | –
3 | CO/N=C/c1ccc2c(C(=O)NCc3ccc(F)c(F)c3)c(C(C)C)n(Cc3ccccn3)c2c1 | 137 | 100% | –
4 | CC(C)OC(=O)c1ccc2c(C(=O)NCc3ccc(F)c(F)c3)c(C(C)C)n(Cc3ccccc3)c2c1 | 45 | 99% | –
5 | CC(C)c1c(C(=O)NCc2ccc(F)c(F)c2)c2ccc(C3=NC(C)(C)CO3)cc2n1Cc1ccccc1 [Compound 71, 1-Benzyl-N-(3,4-difluorobenzyl)-6-(4,4-dimethyl-4,5-dihydrooxazol-2-yl)-2-isopropyl-1H-indole-3-carboxamide] | 47 | 97% | –
6 | COC(=O)c1ccc2c(C(=O)NCc3ccc(F)c(F)c3)c(C(C)C)n(Cc3ccccc3)c2c1 | 12 | 100% | –
7 | CC(C)COc1ccc2c(C(=O)NCc3cccnc3)c(C(C)C)n(Cc3ccccn3)c2c1 | – | – | IC50: 124 nM; S1P3 (% inh): 124 nM (99) %
8 | CCCCCCOc1ccc2c(C(=O)NCc3ccc(F)c(F)c3)c(C(C)C)n(Cc3ccccc3)c2c1 [Compound 14, 1-Benzyl-N-(3,4-difluorobenzyl)-6-(hexoxy)-2-isopropyl-1H-indole-3-carboxamide] | – | – | S1P3 (% inh): 3.1 μM (96) %; IC50 (read-out: S1P3 IC50): 3100 nM
9 | CC(=NO)c1c(C(=O)NCc2ccc(F)c(F)c2)c2ccc(OC(C)C)cc2n1Cc1ccccn1 (stereo in doubt) [Compound 110, (E)-N-(3,4-Difluorobenzyl)-2-(1-(hydroxyimino)ethyl)-6-isopropoxy-1-(pyridin-2-ylmethyl)-1H-indole-3-carboxamide] | – | – | IC50: 384 nM; S1P3 (% inh): 384 nM (100) %
10 | CC(C)c1c(C(=O)NCc2ccc(F)c(F)c2)c2ccc(OC3CCOC3)cc2n1Cc1ccccc1 (stereo not drawn) [Compound 19, 1-Benzyl-N-(3,4-difluorobenzyl)-2-isopropyl-6-(tetrahydrofuran-3-yloxy)-1H-indole-3-carboxamide] | 6 | 100% | –
11 | CC(C)c1c(C(=O)NCc2ccc(F)cc2)c2ccc(NC3CCC3)cc2n1Cc1ccccc1 [Compound 195, 1-Benzyl-6-(cyclobutylamino)-N-(4-fluorobenzyl)-2-isopropyl-1H-indole-3-carboxamide] | 51 | 99% | –
12 | CC(C)c1c(C(=O)NCc2ccc(F)c(F)c2)c2ccc(Oc3nccs3)cc2n1Cc1cccnc1 [Compound 152, N-(3,4-Difluorobenzyl)-2-isopropyl-1-(pyridin-3-ylmethyl)-6-(thiazol-2-yloxy)-1H-indole-3-carboxamide] | 17 | 97% | –
13 | CC(C)c1c(C(=O)NCc2cccnc2)c2ccc(O)cc2n1Cc1ccccn1 | – | ND (54) % | –
14 | CCOC(=O)c1ccc2c(C(=O)NCc3cccc(F)c3)c(C(C)C)n(Cc3ccccc3)c2c1 | 42 | 99% | –
15 | CC(C)c1c(C(=O)NCc2ccc(F)c(F)c2)c2ccc(O)cc2n1Cc1cccnc1 [Compound 151, N-(3,4-Difluorobenzyl)-6-hydroxy-2-isopropyl-1-(pyridin-3-ylmethyl)-1H-indole-3-carboxamide] | – | – | S1P3 (% inh): 65 nM (98) %; IC50 (read-out: S1P3 IC50): 65 nM
16 | CCO/N=C/c1ccc2c(C(=O)NCc3ccc(F)c(F)c3)c(C(C)C)n(Cc3ccccc3)c2c1 | 145 | 99% | –
17 | CC(C)c1c(C(=O)NCc2ccc(F)c(F)c2)c2ccc(C(=O)N(C)C)cc2n1Cc1ccccc1 | 197 | 100% | –
18 | CO/N=C(\C)c1ccc2c(C(=O)NCc3ccc(F)c(F)c3)c(C(C)C)n(Cc3ccccc3)c2c1 | – | – | IC50: 147 nM; S1P3 (% inh): 147 nM (100) %
19 | CC(C)c1c(C(=O)NCc2ccc(F)c(F)c2)c2ccc(CN3CCCC3)cc2n1Cc1ccccc1 | 362 | 93% | –
20 | CC(C)c1c(C(=O)NCc2cncc(F)c2)c2ccc(OC3CCCC3)cc2n1Cc1ccccn1 [Compound 148, 6-(Cyclopentyloxy)-N-((5-fluoropyridin-3-yl)methyl)-2-isopropyl-1-(pyridin-2-ylmethyl)-1H-indole-3-carboxamide] | – | – | S1P3 (% inh): 13 nM (100) %; IC50 (read-out: S1P3 IC50): 13 nM

Row | Compound | IC50 [1] [nM] | S1P3 (% inh) [2] | other results
21 | CC(C)c1c(C(=O)NCc2ccc(F)c(F)c2)c2ccc(OC3CCNC3)cc2n1Cc1ccccc1 (stereo not drawn) | 2400 | 80% | –
22 | CC(C)c1c(C(=O)NCc2ccc(F)c(F)c2)c2ccc(O)cc2n1Cc1ccccc1 [Compound 8, 1-Benzyl-N-(3,4-difluorobenzyl)-6-hydroxy-2-isopropyl-1H-indole-3-carboxamide] | 3100 | 71% | –
23 | CC(C)c1c(C(=O)NCc2ccc(F)c(F)c2)c2ccc(NC3CCC3)cc2n1Cc1ccccn1 [Compound 197, 6-(Cyclobutylamino)-N-(3,4-difluorobenzyl)-2-isopropyl-1-(pyridin-2-ylmethyl)-1H-indole-3-carboxamide] | 67 | 100% | –
24 | CCCNC(=O)c1ccc2c(C(=O)NCc3ccc(F)c(F)c3)c(C(C)C)n(Cc3ccccc3)c2c1 | 146 | 99% | –
25 | CC(C)c1c(C(=O)NCc2ccc(F)c(F)c2)c2ccc(OC3CCCO3)cc2n1Cc1ccccn1 (stereo not drawn) [drawing 169] | 9 | 100% | –
26 | CC[C@H]1COC(c2ccc3c(C(=O)NCc4ccc(F)c(F)c4)c(C(C)C)n(Cc4ncco4)c3c2)=N1 [Compound 83, (S)—N-(3,4-Difluorobenzyl)-6-(4-ethyl-4,5-dihydrooxazol-2-yl)-2-isopropyl-1-(oxazol-2-ylmethyl)-1H-indole-3-carboxamide] | 280 | 99% | –
27 | CC(C)c1c(C(=O)NCc2ccc(F)c(F)c2)c2ccc(/C=N/O)cc2n1Cc1ccccc1 [Compound 55, (E)-1-Benzyl-N-(3,4-difluorobenzyl)-6-((hydroxyimino)methyl)-2-isopropyl-1H-indole-3-carboxamide] | 234 | 100% | –
28 | CC(C)COc1ccc2c(C(=O)NCc3ccc(F)c(F)c3)c(C(C)C)n(Cc3ccccc3)c2c1 [Compound 13, 1-Benzyl-N-(3,4-difluorobenzyl)-6-isobutoxy-2-isopropyl-1H-indole-3-carboxamide] | 1.2 | 100% | Kb (T24 cells stably expressing the human S1P3 receptor, second concentration in the cell, read-out: S1P3 Kb): 1.6 nM
29 | CC(C)c1c(C(=O)NCc2ccc(F)c(F)c2)c2ccc(OC3CCN(C(=O)OC(C)(C)C)C3)cc2n1Cc1ccccc1 (stereo not drawn) | 673 | 100% | –
30 | CC(C)c1c(C(=O)NCc2cccnc2)c2ccc(OC3CCCC3)cc2n1Cc1ccccn1 | 86 | 95% | –
31 | CC(C)c1c(C(=O)NCc2ccc(F)c(F)c2)c2ccc(N(C)C3CCCC3)cc2n1Cc1ccccc1 [Compound 189, 1-Benzyl-6-(cyclopentyl(methyl)amino)-N-(3,4-difluorobenzyl)-2-isopropyl-1H-indole-3-carboxamide] | 87 | 100% | –
32 | CO/N=C/c1ccc2c(C(=O)NCc3ccc(F)c(F)c3)c(C(C)C)n(Cc3ccccc3)c2c1 | 21 | 99% | –
33 | CCCOc1ccc2c(C(=O)NCc3ccc(F)c(F)c3)c(C(C)C)n(Cc3ncco3)c2c1 [Compound 212, N-(3,4-Difluorobenzyl)-2-isopropyl-1-(oxazol-2-ylmethyl)-6-propoxy-1H-indole-3-carboxamide] | – | – | S1P3 (% inh): 393 nM (100) %; IC50 (read-out: S1P3 IC50): 393 nM
34 | CC(C)c1c(C(=O)NCc2ccc(F)c(F)c2)c2ccc(OCc3ncco3)cc2n1Cc1ccccc1 [Compound 131, 1-Benzyl-N-(3,4-difluorobenzyl)-2-isopropyl-6-(1,3-oxazol-2-ylmethoxy)-1H-indole-3-carboxamide] | 890 | 96% | –
35 | CC(C)c1c(C(=O)NCc2ccc(F)c(F)c2)c2ccc(OC3CCOCC3)cc2n1Cc1ccccc1 [Compound 133, 1-Benzyl-N-(3,4-difluorobenzyl)-2-isopropyl-6-(tetrahydro-2H-pyran-4-yloxy)-1H-indole-3-carboxamide] | – | – | S1P3 (% inh): 36 nM (99) %; IC50 (read-out: S1P3 IC50): 36 nM
36 | CC(C)Oc1ccc2c(C(=O)NCc3ccc(F)c(F)c3)c(C(C)C)n(Cc3ncco3)c2c1 [Compound 213, N-(3,4-Difluorobenzyl)-6-isopropoxy-2-isopropyl-1-(oxazol-2-ylmethyl)-1H-indole-3-carboxamide] | 189 | 100% | –
37 | CC(C)Oc1ccc2c(C(=O)NCc3ccc(F)c(F)c3)c(CN(C)C)n(Cc3ccccn3)c2c1 [Compound 98, N-(3,4-Difluorobenzyl)-2-((dimethylamino)methyl)-6-isopropoxy-1-(pyridin-2-ylmethyl)-1H-indole-3-carboxamide] | 632 | 100% | –
38 | Cc1cc(Cn2c(C(C)C)c(C(=O)NCc3ccc(F)c(F)c3)c3ccc(OC4CCCC4)cc32)no1 [Compound 219, 6-(Cyclopentyloxy)-N-(3,4-difluorobenzyl)-2-isopropyl-1-((5-methylisoxazol-3-yl)methyl)-1H-indole-3-carboxamide] | 38 | 99% | –
39 | CC(C)c1c(C(=O)NCc2ccc(F)c(F)c2)c2ccc(C3=N[C@H](C)CO3)cc2n1Cc1ccccc1 [Compound 74, (R)-1-Benzyl-N-(3,4-difluorobenzyl)-2-isopropyl-6-(4-methyl-4,5-dihydrooxazol-2-yl)-1H-indole-3-carboxamide] | 49 | 99% | –
